No end group written: not given here.
What was measured:
[1] = tested on: AVP secretion; assay: AVP secretion in vivo after ICV administration (plasma AVP by RIA); settings: rat; for AT-II induced AVP release: ICV preadministration, AT-II (1 nmol/10 μl) ICV 5 minutes after, plasma AVP; for AVP release induced by high salt administration: ICV, hypertonic saline (850 mM NaCl/10 μl) ICV 5 minutes after, plasma AVP 15 minutes after injection
Description: NERP-1, NERP-1-Gly, NERP-2 or NERP-2-Gly was ICV-administered to rats, followed by ICV administration of hypertonic saline (850 mM NaCl/10 μl) or angiotensin II (AT-II) (1 nmol/10 μl) 5 minutes after.
(§1) Blood samples were taken 15 minutes after the injection of NERPs. Plasma AVP was measured using an RIA kit (manufactured by Mitsubishi). Six pieces of PVN and SON were taken from the rat hypothalamus. Each nucleus was preincubated for an hour at 37° C. in medium 199 (25 mM HEPES buffer, pH 7.4, 2.5% fetal calf serum, 2.5% bovine serum and 1% penicillin-streptomycin) equilibrated under 95% O2 (n=4 wells/group). These nuclei were sequentially stimulated 3 times each for 5 minutes, using one of NERP-1 (10^−6 M), NERP-1 (10^−6 M)+AT-II (10^−6 M) and AT-II (10^−6 M). Stimulation periods were separated by 5-minute recovery periods. Similarly, these nuclei were stimulated using one of NERP-2 (10^−6 M), NERP-2 (10^−6 M)+AT-II (10^−6 M), NERP-1-Gly (10^−6 M) and NERP-2-Gly (10^−6 M). After they were thus stimulated, KCl of 6×10^−2 M was added to confirm depolarization-induced secretion. The two pieces from rat posterior pituitary were stimulated by NERPs and AT-II under the same conditions as described above. Aliquots of the medium were provided for RIA to measure AVP. The experiment was replicated 5 times.

[2] = tested on: PVN and SON; assay: AVP secretion in vitro, static incubation of PVN and SON; format: cell-based; settings: rat nuclei in vitro; for basal AVP secretion, static incubation of PVN and SON: peptide 10^−6 M; for AT-II-induced AVP secretion, static incubation of PVN and SON: peptide 10^−6 M + AT-II 10^−6 M
Description: as §1

[3] = tested on: posterior pituitary; assay: AVP secretion in vitro, static incubation of posterior pituitary; format: cell-based; settings: rat posterior pituitary in vitro, same conditions (10^−6 M)
Description: as §1

[4] = tested on: SON neurons; format: cell-based, rat; settings: for GABAergic IPSC in the SON neurons: holding potential −20 mV
[5] = tested on: free-feeding rats; assay: Feeding experiments in rats after ICV injection; format: in vivo, rat
Description: (§2) To assess feeding, NERP-1, NERP-2 or NERP-2-Gly (0.1-5 nmol/10 μl) was ICV-injected to rats (n=15 per group) at 09:30. Anti-orexin A IgG (0.25 μg/10 μl, Santa Cruz) and anti-orexin B IgG (0.25 μg/10 μl, Santa Cruz) or anti-MCH IgG (0.5 μg/10 μl, Phoenix) was ICV-injected at 09:00 to rats (n=12 per group). In all cases, IgG was injected […] before the NERP-2 administration. Food intake was monitored for an hour. In mouse experiments, NERP-2 (1 nmol/2 μl saline) or MCH (1 nmol/2 μl saline) was ICV-injected to orexin knockout mice (Cell, 92, 573-585 (1998)) and wild-type littermates (n=5 per group, 4 month-old male), then one-hour food intake was measured. Orexin knockout mice were prepared by targeted mutation in ES cells (Cell, 92, 573-585 (1998)).

[6] = tested on: orexin knockout mice and wild-type littermates; assay: One-hour food intake in orexin knockout mice and wild-type littermates after ICV injection; format: in vivo, mouse; settings: ICV 1 nmol/2 μl saline
Description: as §2

[7] = tested on: orexin knockout mice and wild-type mice; assay: Locomotor stimulating activity in mice after ICV administration; format: in vivo, mouse; settings: ICV 5 nmol/2 μl saline, counts summed 30 to 120 minutes after administration
Description: Movement of mice given an ICV administration of NERP-2 (5 nmol/2 μl saline) or vehicle was measured in sound- and light-proof cages equipped with an infrared detector (Muromachi Co. Ltd., Tokyo, Japan) as previously described according to the method described in Endocrinology, 144, 4729-4733 (2003). Locomotor activity counts were measured every 15 minutes and summed for the period of 30 minutes to 120 minutes after the administration.

Substance	AT-II induced AVP release [1]	AVP release induced by high salt administration [1]	basal AVP secretion, static incubation of PVN and SON [2]	AT-II-induced AVP secretion, static incubation of PVN and SON [2]	AVP secretion from the posterior pituitary [3]	IPSCs induced by NERP-1 on application of hemoglobin (Hb) ([4]; Hb 10^−6 M, NO scavenger, added 5 minutes after NERP-1)	presynaptic GABAergic currents induced by NERP-1 in presence of tetrodotoxin ([4]; TTX 10^−6 M, Na+ channel blocker, added 5 minutes after NERP-1)	amplitude of IPSC ([4]; rat SON slice, patch-clamp)	frequency of IPSC ([4]; rat SON slice, patch-clamp)	GABAergic IPSC in the SON neurons ([4]; rat slice, patch-clamp)	EPSC in the SON neurons ([4]; rat slice, patch-clamp, holding potential −70 mV)	food intake during the light phase ([5]; free-feeding rats, ICV 0.1-5 nmol/10 μl, one-hour intake)	lowest effective dose for increased food intake ([5]; free-feeding rats, ICV, light phase) [nmol]	behavior compared to the control group ([5]; rats receiving ICV injection)	duration of orexigenic effect after the ICV injection ([5]; rats, ICV)	food intake in orexin knockout mice [6]	food intake in wild-type control mice [6]	total locomotor activity in the orexin knockout mice [7]	total locomotor activity in the wild-type mice [7]
NERP-1: VGF-derived peptide; human, rat and mouse sequences are SEQ ID NO: 4, 5 and 6; rat form an amidated 25-amino acid peptide (RPESALLGGSEAGERLLQQGLAQVEA; Neuroendocrine regulatory peptide-1; UniProt O15240 281-306, looked up) [VGF-derived peptide; rat form an amidated 25-amino acid peptide]	suppressed	dose-dependently suppressed	suppressed	suppressed	suppressed	not affected	remained unchanged	did not increase	increased	increased	did not increase								
NERP-2: VGF-derived peptide; human, rat and mouse sequences are SEQ ID NO: 7, 8 and 9; rat form an amidated 38-amino acid peptide (QAEATRQAAAQEERLADLASDLLLQYLLQGGARQRGLG; also: rat form amidated, species of this chain not given here; UniProt O15240 310-347, looked up) [VGF-derived peptide; rat form an amidated 38-amino acid peptide]	inhibited	inhibited	suppressed	suppressed						increased		dose-dependently increased	0.1	remained alert and showed no unusual behavior	did not last longer than an hour	did not stimulate	stimulated	did not stimulate	stimulated

Source: US20100040621A1, “Novel polpeptide and use thereof” (TAKEDA PHARMACEUTICAL COMPANY LIMITED, priority 2005, published 2010)
